Consider 18 compounds from patent US20240009175A9, “TETRAZOLE DERIVATIVES” (Merck Patent GmbH, priority 2020, published 2024).

Series [1] addresses ACSS2 (Homo sapiens (Human), UniProt Q9NR19). Briefly: Cellular assay of 14C acetate incorporation into fatty acids (IC50 ACSS2 cellular lipids). Format: cell-based. As to conditions: HCT-15 cells. On the procedure: Cellular Assay of ^14C Acetate Incorporation into Fatty Acids (IC50 ACSS2 Cellular Lipids)
This protocol describes a cellular assay capable to quantify endogenous fatty acid synthesis activity in the human HCT-15 cancer cell line following the incorporation of extracellularly administered radiolabeled ^14C acetate with a scintillation proximity based read out on extracted fatty acids.
HCT-15 cells were grown in RPMI 1640 (Gibco) supplemented with 2 mM glutamine, 1 mM sodium pyruvate 10 mM HEPES and 10% FCS (heat-inactivated) passaged every 2-3 days to remain a subconfluent, vital culture. A working cell bank was prepared with each aliquot containing 1×10^7 viable cells. After thawing, these cells are dilute immediately 1:20 in pre-warmed (37° C.) culture medium. Cells are collected by centrifugation at 200×g for 5 min, and the supernatant is replaced by 30 mL of fresh culture medium per aliquot to obtain a cell suspension containing 350000 cells/ml. From this cell suspension 100 μL are dispersed into each well of a collagen coated 96 well plate, (black, clear bottom, PS, F-bottom, Greiner) and culture for 24 h (37° C., 5% CO2). After incubation the culture medium is removed and the wells are washed once with 100 μL PBS++(supplemented with Mg^2+/Ca^2+, Gibco) and 50 μL assay medium (RPMI 1640+10 mM HEPES) are added to each well. Compounds serial dilutions are prepared from 10 mM stock solutions in DMSO using a fixed dilution factor (usually 1:3). After preparation of the dilution series in DMSO, the individual dilutions are further diluted in the assay medium. This working dilution is prepared such, that the concentration is 7× of the final concentration in the assay. The maximal DMSO concentration in the final assay is 0.1%.
To each well 10 μL compound working dilution or DMSO blank are added and the cells are cultured for 2 h (37° C., 5% CO2). Then 10 μL AlamarBlue reagent (Invitrogen) containing 14 μCi/mL 14C-acetate (Perkin Elmer) are added to each well (70 μl total volume) and cells are again cultured for 2 h. Cell viability is verified by measuring the AlamarBlue fluorescence (Tecan Safire, ex: 544 nm/em: 590 nm). After incubation the culture medium is removed and the wells are carefully washed once with cold 100 μL PBS++. For cell lysis and fatty acid recovery 50 μl 0.1 M NaOH and 0.1% Triton-X100 are added per well. The plate is sealed with PlateLoc (clear peelable heat seal, Agilent) and incubate at 70° C. for 16-24 h. After cooling to room temperature, the plates are centrifuged for 1 min at 1000 rpm and the plate seals are removed. For acidification 150 μL 0.1 M HCl are added to each well, mixed and 150 μL of the mixture are transferred into a 96 well FlashPlate (Perkin Elmer). The plates are sealed with TopSeal-A (Perkin Elmer). To allow for the fatty acid binding to the well surfaces the plates are incubate for 4 h at 70° C. After cooling to room temperature, the plates are centrifuged for 1 min at 1000 rpm and stored for 0.5-2h at room temperature in the dark. Radioactivity from ^14C incorporation into fatty acids in the wells is measured as CPM count in a MicroBeta scintillation counter (Perkin Elmer).

The test system of series [2] is CYP3A4. Briefly: CYP-induction assay in HepaRG cells, QuantiGene Plex 2.0 (CYP3A4 induction). Format: in vitro ADME, human. As to conditions: 48 hrs; for CYP3A4 (in parentheses: lowest concentration causing at least 2-fold induction): value in parentheses; for CYP3A4 (significant induction above 20% threshold): value outside parentheses. An excerpt: CYP-Induction Assay in HepaRG Cells with the QuantiGene Plex 2.0 Reagent System (Branched DNA-Assay) from Affymetrix (Thermo Scientific) (CYP3A4 Induction)
The QuantiGene Plex 2.0 assay combines branched DNA (bDNA) signal amplification and multi-analyte profiling beads (xMAP®) technologies to enable the detection and quantitation of multiple RNA targets simultaneously. The xMAP system combines a flow cytometer, fluorescent-dyed microspheres (beads), lasers and digital signal processing to allow multiplexing of up to 100 unique assays within a single sample.
Human HepaRG cells (Thermo Scientific) were thawed and seeded with a density of 0.72E6 cells/ml in a collagen precoated 96-well plate. After an adaption phase of 3 days in first Williams E medium (Gibco+thawing supplement, Thermo Scientific) the medium was changed to second Williams E medium (Gibco+tox supplement, Thermo Scientific). Daily treatment with test substances at 4 concentrations, started between day 3-10 of culturing, was performed with an incubation time of 48 hrs. After 48 hrs the cells were lysed with 100 μl/well (Lysis mixture, Affymetrix diluted 1:2 with Williams E medium, Gibco and addition of 5 μl proteinase K/ml of the mixture, Affymetrix). The QuantiGene Plex 2.0 assay utilizes fluorescent capture beads to trap specific RNA molecules. In order to hybridize and span contiguous sequences of the target RNA, the probe set containing 3 types of synthetic probes (Capture Extenders, Label Extenders, and Blockers) was incubated with samples and beads at 600 rpm at 54° C. for 16-20 h. Signal amplification was mediated by DNA amplification molecules that hybridize to the tails of the label extenders (incubation of the over-night hybridized beads with pre-amplifier and amplifier reagent for 1 h at 50° C. each, washing steps in between). Each amplification unit contains multiple hybridization sites for biotinylated label probes (incubation with label probe reagent for 1 h at 50° C., washing step in between) that bind Streptavidin-conjugated R-Phycoerythrin (SAPE, last incubation step for 30 min at room temp.). After the SAPE incubation, a last washing step with SAPE buffer was performed (120 μl left in wells). The resulting fluorescence signal associated with individual capture beads was detected on a Luminex 200 flow cytometer (parameters: volume 100 μl, timeout 45 sec., DD-gate 5,000-25,000, bead events 50). Signals were reported as median fluorescence intensity (MFI) and were proportional to the number of target RNA molecules present in the sample.
For analysis of results, calculation of mean values of 3 technical replicates as well as the standard deviations (% SD up to 30% acceptable) were carried out. The mean value of the blank was subtracted from the mean value of the sample. As the genes HPRT1 and TFRC are housekeeping genes, they are used to normalize sample mean values [(Sample Mean−Blank)/Housekeeper (Mean−Blank)=normalized value (HPRT1 or TFRC)]. Calculation of the fold-change was performed by dividing normalized sample values by the normalized mean values of the DMSO controls [(Sample Mean−Blank)/Housekeeper (Mean−Blank)=fc; (DMSO Mean−Blank)/Housekeeper (Mean−Blank)].
Experimental data of the compounds shown in Table 1 in the CYP3A4 assay are shown in Table 2 below and given in μM (significant induction above 20% threshold; in parentheses: lowest concentration causing at least 2-fold induction): […]

pIC50: −log10 of the molar value.

Sequence of ACSS2 (Q9NR19 whole entry): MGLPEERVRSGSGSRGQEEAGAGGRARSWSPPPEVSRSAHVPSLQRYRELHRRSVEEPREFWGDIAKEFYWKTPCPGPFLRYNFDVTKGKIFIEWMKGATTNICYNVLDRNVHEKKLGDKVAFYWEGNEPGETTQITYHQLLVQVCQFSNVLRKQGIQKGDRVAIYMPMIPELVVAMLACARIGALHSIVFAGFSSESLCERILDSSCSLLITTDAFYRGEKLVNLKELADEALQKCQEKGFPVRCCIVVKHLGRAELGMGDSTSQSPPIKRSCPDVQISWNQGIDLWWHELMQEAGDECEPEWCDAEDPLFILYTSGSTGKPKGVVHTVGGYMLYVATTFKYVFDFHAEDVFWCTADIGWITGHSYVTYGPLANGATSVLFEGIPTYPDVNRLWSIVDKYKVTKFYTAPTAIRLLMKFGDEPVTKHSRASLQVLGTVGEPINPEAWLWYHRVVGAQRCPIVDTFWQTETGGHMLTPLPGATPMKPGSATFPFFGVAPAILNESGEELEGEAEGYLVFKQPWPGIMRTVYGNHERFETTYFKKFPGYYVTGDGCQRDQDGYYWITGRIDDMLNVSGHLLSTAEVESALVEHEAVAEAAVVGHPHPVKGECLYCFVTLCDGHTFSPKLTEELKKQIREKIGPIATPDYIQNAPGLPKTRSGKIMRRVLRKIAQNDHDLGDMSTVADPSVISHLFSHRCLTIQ

`CCn1c(C(O)(c2ccccc2)c2cccs2)nc2nc(OC)c(-c3nnn[nH]3)cc21` (racemic) [Compound 35, [1-ethyl-5-methoxy-6-(1H-1,2,3,4-tetrazol-5-yl)-1H-imidazo[4,5-b]pyridin-2-yl](phenyl)(thiophen-2-yl)methanol]: the pIC50 (as a rule, the negative decadic logarithm of the IC50, by convention in mol/L) in series [1] is 9.00 to 11.00.

`CCn1c(C(O)(c2ccccc2)c2ncccn2)nc2nc(OC)c(-c3nnn[nH]3)cc21` (racemic) [Compound 37, [1-ethyl-5-methoxy-6-(1H-1,2,3,4-tetrazol-5-yl)-1H-imidazo[4,5-b]pyridin-2-yl](phenyl)(pyrimidin-2-yl)methanol] had a pIC50 in series [1] of 8.00 to 9.00.

In series [1], `CCn1c(C(O)(c2ccccc2)c2ccccn2)nc2nc(OC)c(-c3nnn[nH]3)cc21` (racemic) [Compound 50, [1-ethyl-5-methoxy-6-(1H-1,2,3,4-tetrazol-5-yl)-1H-imidazo[4,5-b]pyridin-2-yl](phenyl)(pyridin-2-yl)methanol] had a pIC50 of 9.00 to 11.00.

The compound `CCc1c(C(O)(c2ccccc2)c2ccccn2)nc2cc(OC)c(-c3nnn[nH]3)cn12` (single isomer, unassigned) [Compound 11, [3-Ethyl-7-methoxy-6-(1H-tetrazol-5-yl)-imidazo[1,2-a]pyridin-2-yl]-phenyl-pyridin-2-yl-methanol] gave a negative logarithm of the IC50 (pIC50) in series [1] of 8.00 to 9.00.

As to `CCn1c(C(O)(c2ccccc2)c2ccccn2)nc2nc(OC)c(-c3nnn[nH]3)cc21` (single isomer, unassigned) [Compound 40, [1-ethyl-5-methoxy-6-(1H-1,2,3,4-tetrazol-5-yl)-1H-imidazo[4,5-b]pyridin-2-yl](phenyl)(pyridin-2-yl)methanol], in series [2], the “CYP3A4 (in parentheses: lowest concentration causing at least 2-fold induction)” value came to 5 µM and the “CYP3A4 (significant induction above 20% threshold)” value was found to be 6.8 µM. Besides, the pIC50 in series [1] is 8.00 to 9.00.

Turning to `CCc1c(C(O)(c2ccccc2)c2ccccc2)nc2cc(OC)c(-c3nnn[nH]3)cn12` [Compound 2, [3-Ethyl-7-methoxy-6-(1H-tetrazol-5-yl)-imidazo[1,2-a]pyridin-2-yl]-diphenyl-methanol], in series [2], the “CYP3A4 (in parentheses: lowest concentration causing at least 2-fold induction)” value stood at 5 µM and the “CYP3A4 (significant induction above 20% threshold)” value came to 2.3 µM. For the same compound, the pIC50 in series [1] is 8.00 to 9.00.

On to `CCc1c(C(O)(c2ccccc2)c2ccccc2)nc2cc(F)c(-c3nnn[nH]3)cn12` [Compound 3, [3-Ethyl-7-fluoro-6-(1H-tetrazol-5-yl)-imidazo[1,2-a]pyridin-2-yl]-diphenyl-methanol], for which the pIC50 in series [1] is 7.00 to 8.00.

Consider `CCc1c(C(O)(c2ccccc2)c2ccccc2)nc2ccc(-c3nnn[nH]3)cn12` [Compound 4, [3-Ethyl-6-(1 H-tetrazol-5-yl)-imidazo[1,2-a]pyridin-2-yl]-diphenyl-methanol], for which, in series [2], the “CYP3A4 (in parentheses: lowest concentration causing at least 2-fold induction)” value was 50 µM and the “CYP3A4 (significant induction above 20% threshold)” value is 2.2 µM. Besides, in series [1], the pIC50 was 7.00 to 8.00.

For `CCc1c(C(O)(c2ccccc2F)c2ccccc2F)nc2cc(Cl)c(-c3nnn[nH]3)cn12` [Compound 5, [7-Chloro-3-ethyl-6-(1H-tetrazol-5-yl)-imidazo[1,2-a]pyridin-2-yl]-bis-(2-fluoro-phenyl)-methanol], the pIC50 in series [1] was 7.00 to 8.00.

`CCc1c(C(O)(c2ccccc2F)c2ccccc2F)nc2cc(OC)c(-c3nnn[nH]3)cn12` [Compound 6, [3-Ethyl-7-methoxy-6-(1H-tetrazol-5-yl)-imidazo[1,2-a]pyridin-2-yl]-bis-(2-fluoro-phenyl)-methanol]: in series [1], the pIC50 was 8.00 to 9.00.

Regarding `CCc1c(C(O)(c2ccccc2)c2ccccc2)nc2cc(Cl)c(-c3nnn[nH]3)cn12` [Compound 9, [7-Chloro-3-ethyl-6-(1H-tetrazol-5-yl)-imidazo[1,2-a]pyridin-2-yl]-diphenyl-methanol], the negative-log IC50 (pIC50) in series [1] is 8.00 to 9.00.

`CCc1c(C(O)(c2ccccc2F)c2ccccc2F)nn2cc(OC)c(-c3nnn[nH]3)cc12` [Compound 19, [3-Ethyl-6-methoxy-5-(1H-tetrazol-5-yl)-pyrazolo[1,5-a]pyridin-2-yl]-bis-(2-fluoro-phenyl)-methanol]: the negative-log IC50 (pIC50) in series [1] is 8.00 to 9.00.

On to `CCc1c(C(O)(c2ccccc2)c2ccccc2)nn2cc(OC)c(-c3nnn[nH]3)cc12` [Compound 22, [3-Ethyl-6-methoxy-5-(1H-tetrazol-5-yl)-pyrazolo[1,5-a]pyridin-2-yl]-diphenyl-methanol], for which the negative logarithm of the IC50 (pIC50) in series [1] is 8.00 to 9.00.

Take `COc1nc2nc(C(O)(c3ccccc3)c3ccccc3)n(CCO)c2cc1-c1nnn[nH]1` [Compound 34, 2-[2-(hydroxy-diphenylmethyl)-5-methoxy-6-(1H-1,2,3,4-tetrazol-5-yl)-1H-imidazo[4,5-b]pyridin-1-yl]ethan-1-ol]: in series [1], the negative-log IC50 (pIC50) is 7.00 to 8.00.

As for `CCn1c(C(O)(c2cccs2)c2cccs2)nc2nc(OC)c(-c3nnn[nH]3)cc21` [Compound 38, [1-ethyl-5-methoxy-6-(1H-1,2,3,4-tetrazol-5-yl)-1H-imidazo[4,5-b]pyridin-2-yl]bis(thiophen-2-yl)methanol], the pIC50 in series [1] was 7.00 to 8.00.

Regarding `CCn1c(C(O)(c2ccccc2F)c2ccccc2F)nc2nc(OC)c(-c3nnn[nH]3)cc21` [Compound 57, [1-ethyl-5-methoxy-6-(1H-1,2,3,4-tetrazol-5-yl)-1H-imidazo[4,5-b]pyridin-2-yl]bis(2-fluorophenyl)methanol], in series [1], the negative-log IC50 (pIC50) is 9.00 to 11.00.

For the compound `CCn1c(C(O)(c2ccccc2)c2ccccc2)nc2ncc(-c3nnn[nH]3)cc21` [Compound 60, [1-ethyl-6-(1H-1,2,3,4-tetrazol-5-yl)-1H-imidazo[4,5-b]pyridin-2-yl]diphenylmethanol], the negative logarithm of the IC50 (pIC50) in series [1] is 5.00 to 7.00.

Take `CCn1c(C(O)(c2ccccc2)c2ccccc2)nc2nc(C)c(-c3nnn[nH]3)cc21` [Compound 62, [1-ethyl-5-methyl-6-(1H-1,2,3,4-tetrazol-5-yl)-1H-imidazo[4,5-b]pyridin-2-yl]diphenylmethanol]: the pIC50 in series [1] is 5.00 to 7.00.
